Source: publication PMC10328974, “Molecular mechanism of plasmid-borne resistance to sulfonamide antibiotics” (Nature Communications, 2023)
Converted amounts (≈) assume the structure as drawn.

biological target: T1, EcDHPS (dihydropteroate synthase) (Escherichia coli, UniProt P0AC13); experiment: biochemical; conditions: not given
T1 construct: gene folP

| Structure (SMILES) | Ki [µM] |
| --- | --- |
| Cc1cc(NS(=O)(=O)c2ccc(N)cc2)no1 [SMX, sulfamethoxazole] | 5.15 ± 1.1 |

biological target: T2, Sul3 (Escherichia coli, UniProt C0HMD9, F177G); experiment: coupled malachite green DHPS activity assay, competition with pABA; type: biochemical; conditions: read-out: Sulfa (SMX) / Ki
T2 sequence (C0HMD9 1-242 F177G): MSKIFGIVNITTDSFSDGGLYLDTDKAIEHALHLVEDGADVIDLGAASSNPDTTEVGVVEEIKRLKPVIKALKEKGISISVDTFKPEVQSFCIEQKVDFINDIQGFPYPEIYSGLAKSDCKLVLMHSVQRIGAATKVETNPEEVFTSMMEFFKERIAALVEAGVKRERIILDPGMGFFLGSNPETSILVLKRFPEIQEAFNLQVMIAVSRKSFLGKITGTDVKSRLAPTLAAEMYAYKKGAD

| Structure (SMILES) | Ki [µM] |
| --- | --- |
| Cc1cc(NS(=O)(=O)c2ccc(N)cc2)no1 [SMX, sulfamethoxazole] | 4.16 ± 0.3 |

biological target: T3, EcDHPS (Escherichia coli, UniProt P0AC13, F190W/W92F); experiment: intrinsic tryptophan fluorescence titration; type: binding; conditions: not given
T3 construct: gene folP; 1-282 amino acids
T3 sequence (P0AC13 1-282 W92F/F190W): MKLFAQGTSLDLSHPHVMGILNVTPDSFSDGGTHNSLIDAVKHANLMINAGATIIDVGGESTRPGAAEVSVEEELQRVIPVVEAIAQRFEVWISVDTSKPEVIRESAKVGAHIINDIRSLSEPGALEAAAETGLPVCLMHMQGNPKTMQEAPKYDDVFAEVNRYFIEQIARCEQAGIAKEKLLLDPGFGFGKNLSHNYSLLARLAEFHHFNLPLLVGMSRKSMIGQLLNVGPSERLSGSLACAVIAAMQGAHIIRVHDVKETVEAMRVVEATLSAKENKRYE

| Structure (SMILES) | Kd [µM] |
| --- | --- |
| Nc1nc(O)c2c(n1)NCC(COP(=O)(O)OP(=O)(O)O)=N2 [DHPP, 6-hydroxymethyl-7,8-dihydropterin pyrophosphate] | 8 |

tested on: T4, WT E. coli BW25113; experiment: microbe, parasite or virus in culture; parameters: agar dilution MIC on MHII agar, lowest concentration inhibiting bacterial growth; conditions: Escherichia coli, BW25113, 18 h, read-out: MIC (ug/mL)
T4 construct: BW25113
Description: The susceptibilities of various E. coli strains to sulfonamide antibiotics were assessed using the agar dilution method[85] with the exception that MHII agar (Sigma) plates were used, as this agar is specifically formulated to have low levels of thymine and thymidine content, both of which are known to antagonize the action of sulfonamides. Antibiotics used were: sulfamethoxazole (SMX) (Sigma-Aldrich), 50 mg/mL in DMSO; sulfadiazine (SDZ) (Sigma-Aldrich), 100 mg/mL in 1 M NaOH; sulfanilamide (SAA) (Sigma-Aldrich), 50 mg/mL in acetone; sulfisoxazole (SOZ) (TCI America) 50 mg/mL on acetone; sulfathiazole (STZ) (Sigma-Aldrich) 50 mg/mL in acetone: sulfapyridine (SPY) (Sigma-Aldrich) 40 mg/mL in 0.5 M NaOH; sulfamerazine (SMRZ) (AK Scientific), 50 mg/mL in DMSO; sulfamethazine (SMZ) (Alfa Aesar), 50 mg/mL in DMSO; sulfameter (SMT) (Sigma-Aldrich) 100 mg/mL in DMSO; sulfacetamide (SAD) (Sigma-Aldrich) 100 mg/mL in DMSO; sulfaquinoxaline (SQX) (Sigma-Aldrich), 50 mg/mL in DMSO; sulfadimethoxine (SDT) (Sigma-Aldrich), 100 mg/m: in 1 N NaOH. Freshly streaked E. coli colonies were resuspended in sterile 0.9% NaCl solution and the turbidity of the suspension adjusted to that of a McFarland Standard of 0.5 using a Sensititre Nephelometer (Thermo Fisher Scientific) calibrated to a McFarland 0.5 BaSO4 standard. The bacterial suspension was diluted 1:10 into a well of a sterile 96-well microtitre plate by pipetting 10 μL into a well containing 90 μL of sterile saline. A 48-pin replicator with 1.5 mm pins was used to deliver the final inoculum of 1 μL (~10^4 […]) onto MHII agar plates containing various concentrations of either SMX, SDZ, SAA, SOZ STZ, SPY, SMRZ, SMZ, SMT, SAD, SQX, or SDT. […] Inoculated sulfa-agar plates were incubated 37 °C for 18 h and the minimum inhibitory concentration (MIC) was determined to be the lowest concentration of drug that inhibited bacterial growth. In all instances, a drug-free control plate was included to ensure bacterial growth. The ∆folP deletion strain, which is auxotrophic for thymidine

| Structure (SMILES) | MIC [µg/mL] |
| --- | --- |
| Nc1ccc(S(N)(=O)=O)cc1 [SAA, sulfanilamide] | 2050 (≈ 11900 µM) |
| CC(=O)NS(=O)(=O)c1ccc(N)cc1 [SAD, sulfacetamide] | 512 (≈ 2390 µM) |
| COc1cc(NS(=O)(=O)c2ccc(N)cc2)nc(OC)n1 [SDT, sulfadimethoxine] | 256 (≈ 825 µM) |
| Nc1ccc(S(=O)(=O)Nc2ncccn2)cc1 [SDZ, sulfadiazine] | 32 (≈ 128 µM) |
| Cc1ccnc(NS(=O)(=O)c2ccc(N)cc2)n1 [SMRZ, sulfamerazine] | 32 (≈ 121 µM) |
| COc1cnc(NS(=O)(=O)c2ccc(N)cc2)nc1 [SMT, sulfameter] | 128 (≈ 457 µM) |
| Cc1cc(NS(=O)(=O)c2ccc(N)cc2)no1 [SMX, sulfamethoxazole] | 16 (≈ 63.2 µM) |
| Cc1cc(C)nc(NS(=O)(=O)c2ccc(N)cc2)n1 [SMZ, sulfamethazine] | 256 (≈ 920 µM) |
| Cc1noc(NS(=O)(=O)c2ccc(N)cc2)c1C [SOZ, sulfisoxazole] | 32 (≈ 120 µM) |
| Nc1ccc(S(=O)(=O)Nc2ccccn2)cc1 [SPY, sulfapyridine] | 64 (≈ 257 µM) |
| Nc1ccc(S(=O)(=O)Nc2cnc3ccccc3n2)cc1 [SQX, sulfaquinoxaline] | 512 (≈ 1700 µM) |
| Nc1ccc(S(=O)(=O)Nc2nccs2)cc1 [STZ, sulfathiazole] | 16 (≈ 62.7 µM) |
